What was measured:
IDDM = conditions: animal experiments and early non-blinded experiments in humans; cited from earlier work
rat aorta rings = test: Relaxation of rat aorta rings; type: cell-based; conditions: phenylephrine-contracted rat thoracic aorta rings; cumulative addition; read-out: EC50 (concentration required to evoke a 50% relaxation of the tissue)
Description: The activity of the compounds as potassium channel openers can also be measured as relaxation of rat aorta rings according to the following procedure:
A section of rat thoracic aorta between the aortic arch and the diaphragm was dissected out and mounted as ring preparations as described by Taylor P. D. et al, Brit J. Pharmacol, 111, 42-48 (1994).
After a 45 min. equilibration period under a tension of 2 g, the preparations were contracted to achieve 80% of the maximum response using the required concentration of phenylephrine. When the phenylephrine response reached a plateau, potential vasodilatory agents were added cumulatively to the bath in small volumes using half log molar increments at 2 min intervals. Relaxation was expressed at the percentage of the contracted tension. The potency of a compound was expressed as the concentration required to evoke a 50% relaxation of the tissue.

rin 5F cells = test: 86Rb+ efflux from a β-cell line (increased Rb-efflux in rin 5F cells); type: cell-based; conditions: 1 h at room temperature
Description: An opening of KATP -channels will result in an efflux of potassium ions. By measuring the release of ^86 Rb^+ (a radioactive potassium mimic) from e.g. beta-cells pre-incubated in the presence of ^86 Rb^+ the effect of compounds acting as potassium channel openers can be determined. The test expresses the ability of the compounds to regulate the secretion of insulin from the beta-cells.
^86 Rb^+ efflux from a β-cell line
The RIN 5F cell line was grown in RPMI 1640 with Glutamax I, supplemented with 10% fetal calf serum (from GibcoBRL, Scotland, UK) and maintained in an atmosphere of 5% CO2 /95% air at 37° C. The cells were detached with a Trypsin-EDTA solution (from GibcoBRL, Scotland, UK), resuspended in medium, added 1 mCi/ml ^86 Rb^+ and replated into microtiter plates (96 well cluster 3596, sterile, from Costar Corporation,Mass., USA) at a density of 50000 cells/well in 100 μl/well, and grown 24 hours before use in assay.
The plates were washed 4 times with Ringer buffer (150 mM NaCl, 10 mM Hepes, 3.0 mM KCl, 1.0 mM CaCl2, 20 mM Sucrose, pH 7.1). Eighty μl Ringer buffer and 1 μl control- or test compound dissolved in DMSO was added. […] The plates were counted in TopCount (Packard Instrument Company, CT, USA) for 1 min/well at the 32p program. […]

Question: For `NC(=O)c1cccnc1` [Nicotinamide], which “role against IDDM and cytokine/immune mediated beta-cell destruction” value (IDDM) is on record?
Answer: protective role

Question: Which EC50 (rat aorta rings) does the source give for `CC(C)CCN=C(NC#N)Nc1cc(C(F)(F)F)cc(C(F)(F)F)c1` [Example 1, N-Cyano-N'-(3,5-bis(trifluoromethyl)phenyl)-N"-(3-methylbutyl)guanidine] here?
Answer: 5.6 µM

Question: What about the EC50 (rin 5F cells) of the same compound?
Answer: 2.6 µM

— patent publication US6147098A, “Substituted guanidines and diaminonitroethenes, their preparation and use” (Novo Nordisk A/S, priority 1998, dated 2000)
